Experimental data: the NIST ThermoML archive (doi:10.1016/j.fluid.2016.06.024)

Key:
[1] = molar heat capacity at constant pressure; details: Liquid, Flow calorimetry
[2] = molar heat capacity at constant pressure; wn = mass fraction of the nth substance listed; details: Liquid, Flow calorimetry, w2 = 0.995

CCO [ethanol]
molar heat capacity at constant pressure [J/K/mol], [1]
Details | 100 kPa | 5000 kPa | 10000 kPa | 15000 kPa | 20000 kPa
273.17 K | 103.42 | 103.1 | 102.18 | 101.77 | 100.8
293.16 K | 111.62 | 111.02 | 109.97 | 108.95 | 108.21
313.18 K | 120.47 | 119.09 | 117.7 | 116.78 | 115.68
333.19 K | 130.65 | 129.73 | 128.35 | 126.83 | 125.91

COC(F)(F)C(F)(F)C(F)(F)F [heptafluoropropyl methyl ether]
[1]
Details | molar heat capacity at constant pressure [J/K/mol]
255.05 K, 100 kPa | 233.26
255.06 K, 10000 kPa | 230.06
255.06 K, 15000 kPa | 229.26
255.08 K, 5000 kPa | 231.26
266.01 K, 100 kPa | 240.27
266.01 K, 5000 kPa | 238.67
266.02 K, 10000 kPa | 237.06
266.03 K, 15000 kPa | 236.46
275.04 K, 100 kPa | 245.47
275.04 K, 15000 kPa | 241.27
275.05 K, 5000 kPa | 244.27
275.11 K, 10000 kPa | 242.47
284.81 K, 100 kPa | 251.87
284.81 K, 5000 kPa | 250.07
284.86 K, 10000 kPa | 248.67
284.94 K, 15000 kPa | 247.47
294.05 K, 100 kPa | 257.67
294.07 K, 5000 kPa | 255.47
294.08 K, 10000 kPa | 254.47
294.1 K, 15000 kPa | 253.67

COC(F)(F)C(F)(C(F)(F)F)C(F)(F)F [methyl nonafluoroisobutyl ether] + COC(F)(F)C(F)(F)C(F)(F)C(F)(F)F
[2]
Details | molar heat capacity at constant pressure [J/K/mol]
253.15 K, 5000 kPa | 209.05
253.16 K, 10000 kPa | 207.55
253.16 K, 15000 kPa | 205.55
253.17 K, 100 kPa | 214.05
264.15 K, 15000 kPa | 227.11
264.16 K, 5000 kPa | 230.61
264.17 K, 100 kPa | 232.86
264.18 K, 10000 kPa | 228.61
274.59 K, 15000 kPa | 249.36
274.63 K, 100 kPa | 257.81
274.63 K, 5000 kPa | 252.81
274.63 K, 10000 kPa | 250.86
284.25 K, 10000 kPa | 273.79
284.26 K, 100 kPa | 278.04
284.27 K, 5000 kPa | 275.79
284.3 K, 15000 kPa | 272.29
294.09 K, 5000 kPa | 297.5
294.09 K, 10000 kPa | 294.82
294.1 K, 100 kPa | 300.52
294.13 K, 15000 kPa | 294
303.94 K, 10000 kPa | 317.35
303.95 K, 100 kPa | 321.61
303.96 K, 5000 kPa | 319.35
303.96 K, 15000 kPa | 315.85
314.92 K, 100 kPa | 347.39
314.92 K, 5000 kPa | 345.14
314.92 K, 10000 kPa | 342.34
314.92 K, 15000 kPa | 340.08
323.71 K, 100 kPa | 374.09
323.72 K, 5000 kPa | 369.47
323.73 K, 10000 kPa | 367.47
323.74 K, 15000 kPa | 364.84
